Data on 30 compounds can be found in publication PMC4102417 (PLoS Neglected Tropical Diseases, 2014).

As usually defined, the EC50 is the concentration at which the effect is half-maximal.

Counter-ions that a name gives are not always drawn. Like-named read-outs stand apart in the source and are kept apart here.

For experiment [1], the system named is T. cruzi (Tulahuen strain). The experiment can be described thus: microbe, parasite or virus in culture. The class given is cell-based, Trypanosoma cruzi. Particulars: for activity at 10 µM / EC50: Trypanosoma cruzi, TULAHUEN, Fibroblast; for activity at 10 µM: 120 h, read-out: T. cruzi % growth @ 10 uM (Amastigotes). Here is the method:
Compounds were tested against T. cruzi (Tulahuen strain) stably expressing the beta-galactosidase gene as previously described. […] Fibroblasts were plated at a density of 2×10^3 per well in 96 well tissue culture plates. After 24 hours of incubation, 1×10^4 trypomastigotes/well were added to the fibroblasts and incubated for 4 hours before addition of the test compounds from the Spectrum Collection (10 µM final concentration). Cultures were incubated at 37°C for 5 days, then developed with chlorophenol red β-D-galactopyranoside as previously described. The percent inhibition is reported with standard deviation of the mean. […] Z-prime values were calculated for each 96-well plate based on positive (4 wells) and negative controls (4 wells).

A further experiment concerns 3T3 fibroblast cells. In words: cells. The class given is cell-based, murine. Particulars: for activity at 10 µM: Mus musculus, NIH3T3, 72 h, read-out: Mammalian (3T3) cell % growth at 10 uM.

Consider `CNCCC=C1c2ccccc2CCc2ccccc21` [NORTRIPTYLINE, methyl(3-{tricyclo[9.4.0.0^{3,8}]pentadeca-1(15),3,5,7,11,13-hexaen-2-ylidene}propyl)amine], for which the figures for the activity at 10 µM (in experiment [1]; in the experiment with 3T3 fibroblast cells) were 9.7% and 100%, respectively. Moreover, in experiment [1] (read-out: T. cruzi EC50 (nM)), the EC50 was 5180 nM.

Consider `O=c1c(-c2cc(O)c(O)c(O)c2)coc2cc(O)c(O)c(O)c12` [IRIGENOL, 5,6,7-trihydroxy-3-(3,4,5-trihydroxyphenyl)-4H-chromen-4-one], for which the activity at 10 µM in experiment [1] (10 uM, Table S2) was found to be 5.7%; with 3T3 fibroblast cells (10 uM, Table S2) it was 73.7%.

For `CCCCc1oc2ccccc2c1C(=O)c1cc(I)c(OCCN(CC)CC)c(I)c1` [Amiodarone, (2-{4-[(2-butyl-1-benzofuran-3-yl)carbonyl]-2,6-diiodophenoxy}ethyl)diethylamine hydrochloride], in the experiment with 3T3 fibroblast cells (10 uM, Table S2), the activity at 10 µM was 86.7%.

As for `CC(CC(O)C1OC1(C)C)C1CCC2(C)C3=CCC4C(C)(C)C(=O)CCC4(C)C3CCC12C` (stereo not shown) [NILOTICIN, 14-[4-(3,3-dimethyloxiran-2-yl)-4-hydroxybutan-2-yl]-2,6,6,11,15-pentamethyltetracyclo[8.7.0.0^{2,7}.0^{11,15}]heptadec-9-en-5-one], the activity at 10 µM in experiment [1] (10 uM, Table S2) worked out at 2.2%; with 3T3 fibroblast cells (10 uM, Table S2), 100%.

On to `CC(=O)OC1CCC2(C)C(CC(OC(C)=O)C3(C)C2CCC2(C)C(c4ccoc4)OC(=O)C4OC423)C1(C)C` (stereo not drawn) [3beta-ACETOXYDEOXODIHYDROGEDUNIN, 15-(acetyloxy)-7-(furan-3-yl)-1,8,12,16,16-pentamethyl-5-oxo-3,6-dioxapentacyclo[9.8.0.0^{2,4}.0^{2,8}.0^{12,17}]nonadecan-19-yl acetate], for which the activity at 10 µM in experiment [1] (10 uM, Table S2) is 7%; in the experiment on 3T3 fibroblast cells (10 uM, Table S2), 96.7%.

As for `CC(C)CC1C(=O)N2CCCC2C2(O)OC(NC(=O)C3C=C4c5cccc6[nH]c(Br)c(c56)CC4N(C)C3)(C(C)C)C(=O)N12` (stereo not shown) [BROMOCRIPTINE MESYLATE, 10-bromo-N-[2-hydroxy-7-(2-methylpropyl)-5,8-dioxo-4-(propan-2-yl)-3-oxa-6,9-diazatricyclo[7.3.0.0^{2,6}]dodecan-4-yl]-6-methyl-6,11-diazatetracyclo[7.6.1.0^{2,7}.0^{12,16}]hexadeca-1(15),2,9,12(16),13-pentaene-4-carboxamide; methanesulfonic acid], the activity at 10 µM in experiment [1] (10 uM, Table S2) turned out to be 2%; in the experiment on 3T3 fibroblast cells (10 uM, Table S2), 92.1%.

`Clc1ccc(COC(Cn2ccnc2)c2ccc(Cl)cc2Cl)c(Cl)c1` (stereo not shown) [Miconazole, 1-[2-(2,4-dichlorophenyl)-2-[(2,4-dichlorophenyl)methoxy]ethyl]-1H-imidazole]: the activity at 10 µM is 0.4% in experiment [1] (10 uM, Table S2) and 100% with 3T3 fibroblast cells (10 uM, Table S2).

Take `CCOc1ccc(C(=O)c2ccc(OC)c(O)c2O)cc1` [2,3-DIHYDROXY-4-METHOXY-4'-ETHOXYBENZOPHENONE]: the activity at 10 µM in experiment [1] (10 uM, Table S2) stood at 9.1%; in the experiment on 3T3 fibroblast cells (10 uM, Table S2) it was 95.8%.

Take `CC1CCC2C(C)C(=O)OC3OC4(C)CCC1C32OO4` (stereo not shown) [ARTEMISININ, 1,5,9-trimethyl-11,14,15,16-tetraoxatetracyclo[10.3.1.0^{4,13}.0^{8,13}]hexadecan-10-one]: the activity at 10 µM in experiment [1] (10 uM, Table S2) amounted to 17.5%; with 3T3 fibroblast cells (10 uM, Table S2), 77.6%. Also, the EC50 in experiment [1] (Table S2, amastigotes, read-out: T. cruzi EC50) worked out at 5020 nM.

With `CC1(C)C(=O)C=CC2(C)C1CC(=O)C1(C)C2CCC2(C)C(c3ccoc3)OC(=O)C3OC321` (stereo not shown) [DEACETOXY-7-OXOGEDUNIN, 7-(furan-3-yl)-1,8,12,16,16-pentamethyl-3,6-dioxapentacyclo[9.8.0.0^{2,4}.0^{2,8}.0^{12,17}]nonadec-13-ene-5,15,19-trione], the activity at 10 µM was 4.9% in experiment [1] (10 uM, Table S2) and 75.8% with 3T3 fibroblast cells (10 uM, Table S2).

Take `CC(=O)OC1c2c(ccc3ccc(=O)oc23)OC(C)(C)C1OC(=O)CC(C)C` (stereo not shown) [DIHYDROSAMIDIN, 14-(acetyloxy)-12,12-dimethyl-4-oxo-3,11-dioxatricyclo[8.4.0.0^{2,7}]tetradeca-1(10),2(7),5,8-tetraen-13-yl 3-methylbutanoate]: the activity at 10 µM in experiment [1] (10 uM, Table S2) is 10.9%; in the experiment on 3T3 fibroblast cells (10 uM, Table S2) it was 81.2%.

Regarding `COC(=O)c1cc(O)c(=O)c2c(O)c(O)ccc2c1` [methyl 3,4,6-trihydroxy-5-oxo-5H-benzo[7]annulene-8-carboxylate], the activity at 10 µM is 18.2% in experiment [1] (10 uM, Table S2) and 92.2% in the experiment on 3T3 fibroblast cells (10 uM, Table S2).

As to `CC1=CC(=O)C2C(C)(C)CCCC2(C)C1(O)CCc1ccoc1` (stereo not shown) [SOLIDAGENONE, 4-[2-(furan-3-yl)ethyl]-4-hydroxy-3,4a,8,8-tetramethyl-1,4,4a,5,6,7,8,8a-octahydronaphthalen-1-one], the activity at 10 µM in experiment [1] (10 uM, Table S2) was 15.1%; in the experiment with 3T3 fibroblast cells (10 uM, Table S2) it was 75.8%.

For `CN(C)CCCN1c2ccccc2Sc2ccc(Cl)cc21` [CHLORPROMAZINE, [3-(2-chloro-10H-phenothiazin-10-yl)propyl]dimethylamine], the activity at 10 µM in experiment [1] (10 uM, Table S2) was 14.2%; with 3T3 fibroblast cells (10 uM, Table S2), 99.3%.

Regarding `CCCCCCCC/C=C/CCCCCCCCOP(=O)([O-])OCC[N+](C)(C)C` [ELAIDYLPHOSPHOCHOLINE, (9E)-octadec-9-en-1-yl [2-(trimethylazaniumyl)ethyl] phosphate], the activity at 10 µM stood at 5% in experiment [1] (10 uM, Table S2) and 93.7% in the experiment with 3T3 fibroblast cells (10 uM, Table S2).

Turning to `COc1ccc(-c2cc(=O)c3ccccc3o2)cc1OC` [3',4'-DIMETHOXYFLAVONE, 2-(3,4-dimethoxyphenyl)-4H-chromen-4-one], the activity at 10 µM was 24% in experiment [1] (10 uM, Table S2) and 86.4% in the experiment on 3T3 fibroblast cells (10 uM, Table S2).

Turning to `COc1ccc2c(c1)OC[C@@H](Cc1ccc(OC)c(OC)c1)[C@@H]2O` [3-DESHYDRO[…] ETHER], the activity at 10 µM was 24.9% in experiment [1] (10 uM, Table S2) and 80.4% in the experiment with 3T3 fibroblast cells (10 uM, Table S2).

In the case of `CC1(C)C=CC(=O)C2(C)C1CC(=O)C1(C)C2CCC2(C)C(c3ccoc3)OC(=O)C3OC321` (stereo not shown) [DEACETOXY-7-OXISOGEDUNIN, 7-(furan-3-yl)-1,8,12,16,16-pentamethyl-3,6-dioxapentacyclo[9.8.0.0^{2,4}.0^{2,8}.0^{12,17}]nonadec-14-ene-5,13,19-trione], the activity at 10 µM in experiment [1] (10 uM, Table S2) stood at 3.9%; with 3T3 fibroblast cells (10 uM, Table S2), 100%.

In the case of `CC(=O)OC1CCC2(C)C3=C(CCC2C1(C)C)C1(C)CCC(C(C)CCC=C(C)C)C1(C)CC3` (stereo not shown) [EUPHOL ACETATE, 2,6,6,11,15-pentamethyl-14-(6-methylhept-5-en-2-yl)tetracyclo[8.7.0.0^{2,7}.0^{11,15}]heptadec-1(10)-en-5-yl acetate], the activity at 10 µM in experiment [1] (10 uM, Table S2) was determined as 12%; with 3T3 fibroblast cells (10 uM, Table S2), 87.6%.

With `COC(=O)CCC(C)C1CCC2C3CCC4CC(O)CCC4(C)C3CC(O)C12C` (stereo not shown) [METHYL DEOXYCHOLATE, methyl 4-{5,16-dihydroxy-2,15-dimethyltetracyclo[8.7.0.0^{2,7}.0^{11,15}]heptadecan-14-yl}pentanoate], the activity at 10 µM in experiment [1] (10 uM, Table S2) is 22.9%; with 3T3 fibroblast cells (10 uM, Table S2), 100%.

In the case of `CCN(CC)CCOc1ccc2c(c1)C(=O)c1cc(OCCN(CC)CC)ccc1-2` [TILORONE, 2,7-bis[2-(diethylamino)ethoxy]-9H-fluoren-9-one], the activity at 10 µM stood at 7.8% in experiment [1] (10 uM, Table S2) and 89% in the experiment on 3T3 fibroblast cells (10 uM, Table S2).

For the compound “1-methyl-9H-pyrido[3,4-b]indol-7-ol hydrochloride [HARMOL]”, the “T. cruzi % growth @ 10 uM (Amastigotes)” value in experiment [1] (10 uM, Table S2) amounted to 4.4%. Further, the “Mammalian (3T3) cell % growth at 10 uM” value in the experiment on 3T3 fibroblast cells (10 uM, Table S2) is reported as 71.4%.

On to `C=CC(C1=CC(=O)C=CC1=O)c1ccccc1` (stereo not shown) [DALBERGIONE, 2-(1-phenylprop-2-en-1-yl)cyclohexa-2,5-diene-1,4-dione], for which the activity at 10 µM in experiment [1] (10 uM, Table S2) came to 12.4%; in the experiment with 3T3 fibroblast cells (10 uM, Table S2) it was 97.5%.

Take `CC1COC2=C1C(=O)C(=O)c1c2ccc2c1CCCC2(C)C` (stereo not shown) [CRYPTOTANSHINONE, 6,6,14-trimethyl-12-oxatetracyclo[8.7.0.0^{2,7}.0^{11,15}]heptadeca-1(10),2(7),8,11(15)-tetraene-16,17-dione]: the activity at 10 µM in experiment [1] (10 uM, Table S2) amounted to 4.5%; with 3T3 fibroblast cells (10 uM, Table S2), 87%.

In the case of `CCC1(O)C(=O)OCc2c1cc1n(c2=O)Cc2cc3ccccc3nc2-1` (stereo not shown) [CAMPTOTHECIN, 19-ethyl-19-hydroxy-17-oxa-3,13-diazapentacyclo[11.8.0.0^{2,11}.0^{4,9}.0^{15,20}]henicosa-1(21),2,4(9),5,7,10,15(20)-heptaene-14,18-dione], the activity at 10 µM in experiment [1] (10 uM, Table S2) was 3.9%; with 3T3 fibroblast cells, 94.3%.

Take `Oc1cc2c(cc1O)C1c3ccc(O)c(O)c3OCC1(O)C2` (stereo not shown) [HAEMATOXYLIN, 8-oxatetracyclo[8.7.0.0^{2,7}.0^{12,17}]heptadeca-2,4,6,12,14,16-hexaene-5,6,10,14,15-pentol]: the activity at 10 µM was 3.7% in experiment [1] (10 uM, Table S2) and 100% with 3T3 fibroblast cells (10 uM, Table S2).

Consider `Nc1nc(=S)c2[nH]cnc2[nH]1` [THIOGUANINE, 2-amino-6,7-dihydro-3H-purine-6-thione], for which the activity at 10 µM came out at 14.8% in experiment [1] (10 uM, Table S2) and 98.3% in the experiment with 3T3 fibroblast cells (10 uM, Table S2).

Take `CNC1CCC(c2ccc(Cl)c(Cl)c2)c2ccccc21` (stereo not shown) [Sertraline, 4-(3,4-dichlorophenyl)-N-methyl-1,2,3,4-tetrahydronaphthalen-1-amine hydrochloride]: the activity at 10 µM in the experiment on 3T3 fibroblast cells (10 uM, Table S2) stood at 100%.

As for `CN(C)CCCN1c2ccccc2CCc2ccc(Cl)cc21` [Clomipramine, (3-{5-chloro-2-azatricyclo[9.4.0.0^{3,8}]pentadeca-1(15),3,5,7,11,13-hexaen-2-yl}propyl)dimethylamine hydrochloride], the activity at 10 µM in the experiment on 3T3 fibroblast cells (10 uM, Table S2) came out at 84.6%.

For the compound `CNCCC(Oc1ccc(C(F)(F)F)cc1)c1ccccc1` (stereo not shown) [Fluoxetine, methyl({3-phenyl-3-[4-(trifluoromethyl)phenoxy]propyl})amine hydrochloride], in the experiment on 3T3 fibroblast cells (10 uM, Table S2), the activity at 10 µM was determined as 100%.
